Data published in the NIST ThermoML archive (doi:10.1021/je060271a).
Several values for one entry are separate records, joined by “and”; a condition that tells them apart may be missing. Equal values may be shown once. ± gives the expanded uncertainty stated by the source.

Settings: Liquid, Vibrating tube method

CCCCCC(=O)OCC(COC(=O)CCCCC)(COC(=O)CCCCC)COC(=O)CCCCC [pentaerythritol tetrahexanoate]
Settings	mass density
303.16 K, 25121 kPa	1003.6 ± 1.2 kg/m3
303.16 K, 25156 kPa	1003.5 ± 1.2 kg/m3
303.16 K, 25186 kPa	1003.6 ± 1.2 kg/m3
303.16 K, 25221 kPa	1003.6 ± 1.2 kg/m3
303.16 K, 25252 kPa	1003.7 ± 1.2 kg/m3
303.16 K, 25282 kPa	1003.6 ± 1.2 kg/m3
303.16 K, 25674 kPa	1003.8 ± 1.2 kg/m3
303.16 K, 25700 kPa	1003.9 ± 1.2 kg/m3
303.16 K, 25725 kPa	1003.8 ± 1.2 kg/m3
303.16 K, 25756 kPa	1003.9 ± 1.2 kg/m3
303.16 K, 25781 kPa	1004 ± 1.2 kg/m3
303.16 K, 25807 kPa	1003.9 ± 1.2 kg/m3
303.16 K, 25838 kPa	1004 ± 1.2 kg/m3
303.16 K, 25863 kPa	1004 ± 1.2 kg/m3
303.16 K, 25889 kPa	1004 ± 1.2 kg/m3
303.16 K, 28629 kPa	1005.5 ± 1.2 kg/m3
303.16 K, 28934 kPa	1005.7 ± 1.2 kg/m3
303.16 K, 28965 kPa	1005.6 ± 1.2 kg/m3
303.16 K, 28991 kPa	1005.6 ± 1.2 kg/m3
303.16 K, 29017 kPa	1005.6 ± 1.2 kg/m3
303.16 K, 29049 kPa	1005.7 ± 1.2 kg/m3
303.16 K, 29076 kPa	1005.7 ± 1.2 kg/m3
303.16 K, 29102 kPa	1005.7 ± 1.2 kg/m3
303.16 K, 29134 kPa	1005.8 ± 1.2 kg/m3
303.16 K, 29162 kPa	1005.6 ± 1.2 kg/m3
303.16 K, 29189 kPa	1005.7 ± 1.2 kg/m3
303.16 K, 29220 kPa	1005.8 ± 1.2 kg/m3
303.16 K, 29244 kPa	1005.8 ± 1.2 kg/m3
303.16 K, 29266 kPa	1005.9 ± 1.2 kg/m3
303.16 K, 29288 kPa	1005.9 ± 1.2 kg/m3
303.16 K, 29315 kPa	1005.9 ± 1.2 kg/m3
303.16 K, 29338 kPa	1005.9 ± 1.2 kg/m3
303.16 K, 29360 kPa	1005.9 ± 1.2 kg/m3
303.16 K, 29388 kPa	1005.8 ± 1.2 kg/m3
303.16 K, 29410 kPa	1006 ± 1.2 kg/m3
303.16 K, 29438 kPa	1005.9 ± 1.2 kg/m3
303.16 K, 30312 kPa	1006.3 ± 1.2 kg/m3
303.16 K, 30341 kPa	1006.5 ± 1.2 kg/m3
303.16 K, 30365 kPa	1006.5 ± 1.2 kg/m3
303.16 K, 30389 kPa	1006.5 ± 1.2 kg/m3
303.16 K, 30419 kPa	1006.6 ± 1.2 kg/m3
303.16 K, 30445 kPa	1006.4 ± 1.2 kg/m3
303.16 K, 30470 kPa	1006.4 ± 1.2 kg/m3
303.16 K, 30494 kPa	1006.6 ± 1.2 kg/m3
303.16 K, 30523 kPa	1006.6 ± 1.2 kg/m3
303.16 K, 30548 kPa	1006.6 ± 1.2 kg/m3
303.16 K, 30572 kPa	1006.6 ± 1.2 kg/m3
303.16 K, 30602 kPa	1006.5 ± 1.2 kg/m3
303.16 K, 30627 kPa	1006.6 ± 1.2 kg/m3
303.16 K, 30652 kPa	1006.6 ± 1.2 kg/m3
303.16 K, 30681 kPa	1006.5 ± 1.2 kg/m3
303.16 K, 30706 kPa	1006.7 ± 1.2 kg/m3
303.16 K, 30731 kPa	1006.5 ± 1.2 kg/m3
303.16 K, 30761 kPa	1006.7 ± 1.2 kg/m3
303.16 K, 30788 kPa	1006.6 ± 1.2 kg/m3
303.16 K, 30813 kPa	1006.6 ± 1.2 kg/m3
303.16 K, 30838 kPa	1006.7 ± 1.2 kg/m3
303.16 K, 30868 kPa	1006.7 ± 1.2 kg/m3
303.16 K, 30893 kPa	1006.6 ± 1.2 kg/m3
303.16 K, 30923 kPa	1006.7 ± 1.2 kg/m3
303.16 K, 30949 kPa	1006.7 ± 1.2 kg/m3
303.16 K, 30974 kPa	1006.7 ± 1.2 kg/m3
303.16 K, 31005 kPa	1006.9 ± 1.2 kg/m3
303.16 K, 31031 kPa	1006.7 ± 1.2 kg/m3
303.16 K, 31057 kPa	1006.7 ± 1.2 kg/m3
303.16 K, 31087 kPa	1006.8 ± 1.2 kg/m3
303.16 K, 31114 kPa	1006.8 ± 1.2 kg/m3
303.16 K, 31140 kPa	1006.9 ± 1.2 kg/m3
303.16 K, 32264 kPa	1007.5 ± 1.2 kg/m3
303.16 K, 32284 kPa	1007.6 ± 1.2 kg/m3
303.16 K, 32306 kPa	1007.5 ± 1.2 kg/m3
303.16 K, 32325 kPa	1007.5 ± 1.2 kg/m3
303.16 K, 32343 kPa	1007.5 ± 1.2 kg/m3
303.16 K, 32366 kPa	1007.5 ± 1.2 kg/m3
303.16 K, 32385 kPa	1007.4 ± 1.2 kg/m3
303.16 K, 32914 kPa	1007.8 ± 1.2 kg/m3
303.16 K, 32937 kPa	1007.9 ± 1.2 kg/m3
303.16 K, 32956 kPa	1007.7 ± 1.2 kg/m3
303.16 K, 32976 kPa	1007.7 ± 1.2 kg/m3
303.16 K, 33185 kPa	1007.9 ± 1.2 kg/m3
303.16 K, 33209 kPa	1008 ± 1.2 kg/m3
303.16 K, 33228 kPa	1008 ± 1.2 kg/m3
303.16 K, 33252 kPa	1007.9 ± 1.2 kg/m3
303.16 K, 33272 kPa	1008.1 ± 1.2 kg/m3
303.16 K, 33292 kPa	1008 ± 1.2 kg/m3
303.16 K, 33317 kPa	1007.9 ± 1.2 kg/m3
303.16 K, 33337 kPa	1008.1 ± 1.2 kg/m3
303.16 K, 33357 kPa	1008.1 ± 1.2 kg/m3
303.16 K, 33377 kPa	1008.1 ± 1.2 kg/m3
303.16 K, 33402 kPa	1008.1 ± 1.2 kg/m3
303.16 K, 33423 kPa	1008 ± 1.2 kg/m3
303.16 K, 33443 kPa	1008.1 ± 1.2 kg/m3
303.16 K, 33467 kPa	1008.1 ± 1.2 kg/m3
303.16 K, 33487 kPa	1008.1 ± 1.2 kg/m3
303.16 K, 33512 kPa	1008.1 ± 1.2 kg/m3
303.16 K, 33533 kPa	1008.1 ± 1.2 kg/m3
303.16 K, 33553 kPa	1008.1 ± 1.2 kg/m3
303.16 K, 33574 kPa	1008.3 ± 1.2 kg/m3
303.16 K, 33599 kPa	1008.2 ± 1.2 kg/m3
303.16 K, 33621 kPa	1008.2 ± 1.2 kg/m3
303.16 K, 33642 kPa	1008.3 ± 1.2 kg/m3
303.16 K, 33668 kPa	1008.3 ± 1.2 kg/m3
303.16 K, 33689 kPa	1008.3 ± 1.2 kg/m3
303.16 K, 33711 kPa	1008.2 ± 1.2 kg/m3
303.16 K, 33733 kPa	1008.1 ± 1.2 kg/m3
303.16 K, 33759 kPa	1008.2 ± 1.2 kg/m3
303.16 K, 33782 kPa	1008.3 ± 1.2 kg/m3
303.16 K, 33805 kPa	1008.2 ± 1.2 kg/m3
303.16 K, 33833 kPa	1008.2 ± 1.2 kg/m3
303.16 K, 33857 kPa	1008.4 ± 1.2 kg/m3
303.16 K, 33886 kPa	1008.2 ± 1.2 kg/m3
303.17 K, 238.4 kPa	988.6 ± 1.2 kg/m3
303.17 K, 238.6 kPa	988.5 ± 1.2 kg/m3
303.17 K, 239.1 kPa	988.5 ± 1.2 kg/m3
303.17 K, 272.8 kPa	988.5 ± 1.2 kg/m3
303.17 K, 273 kPa	988.7 ± 1.2 kg/m3
303.17 K, 273.3 kPa	988.6 ± 1.2 kg/m3
303.17 K, 273.5 kPa	988.6 ± 1.2 kg/m3
303.17 K, 273.6 kPa	988.6 ± 1.2 kg/m3
303.17 K, 355.5 kPa	988.6 ± 1.2 kg/m3
303.17 K, 355.8 kPa	988.5 ± 1.2 kg/m3
303.17 K, 356.5 kPa	988.6 ± 1.2 kg/m3
303.17 K, 356.8 kPa	988.5 ± 1.2 kg/m3
303.17 K, 357.2 kPa	988.6 ± 1.2 kg/m3
303.17 K, 357.5 kPa	988.6 ± 1.2 kg/m3
303.17 K, 361 kPa	988.7 ± 1.2 kg/m3
303.17 K, 361.7 kPa	988.5 ± 1.2 kg/m3
303.17 K, 362 kPa	988.6 ± 1.2 kg/m3
303.17 K, 362.4 kPa	988.5 ± 1.2 kg/m3
303.17 K, 362.7 kPa	988.6 ± 1.2 kg/m3
303.17 K, 363.1 kPa	988.6 ± 1.2 kg/m3
303.17 K, 363.8 kPa	988.7 ± 1.2 kg/m3
303.17 K, 364 kPa	988.7 ± 1.2 kg/m3
303.17 K, 375.4 kPa	988.5 ± 1.2 kg/m3
303.17 K, 376.3 kPa	988.6 ± 1.2 kg/m3
303.17 K, 376.5 kPa	988.7 ± 1.2 kg/m3 and 988.6 ± 1.2 kg/m3
303.17 K, 377.2 kPa	988.6 ± 1.2 kg/m3
303.17 K, 378.5 kPa	988.6 ± 1.2 kg/m3
303.17 K, 1469.1 kPa	989.4 ± 1.2 kg/m3
303.17 K, 1484.4 kPa	989.2 ± 1.2 kg/m3
303.17 K, 1497.4 kPa	989.2 ± 1.2 kg/m3
303.17 K, 1510.5 kPa	989.4 ± 1.2 kg/m3
303.17 K, 1526.6 kPa	989.4 ± 1.2 kg/m3
303.17 K, 1540 kPa	989.3 ± 1.2 kg/m3
303.17 K, 1553.5 kPa	989.4 ± 1.2 kg/m3
